What all share (assay): NCI anticancer screen, dose series, 48 h
Experiment [1] deals with TK-10.
The test system of experiment [2] is NCI-H23.
Experiment [3] has as its system Malme-3M.
In experiment [4] the test system is HL-60.
Experiment [5] relates to NCI/ADR-RES.
The test system of experiment [6] is MDA-N.
The test system of experiment [7] is U-251.
The subject of experiment [8] is SNB-19.
Experiment [9] relates to CAKI-1.
For experiment [10], the system named is SK-OV-3.
In experiment [11] the test system is UO-31.
Experiment [12] relates to ACHN.
The subject of experiment [13] is SK-MEL-2.
Experiment [14] concerns SF-539.
For experiment [15], the system named is KM12.
The test system of experiment [16] is SK-MEL-28.
The subject of experiment [17] is NCI-H522.
For experiment [18], the system named is NCI-H226.
The subject of experiment [19] is MDA-MB-435.
Experiment [20] concerns MDA-MB-231.

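Each compound was tested at five concentrations against cells in 96-well plates for 48 hours. At the GI50, growth is halved.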 Calls of active or inactive are those of the source. Cut-off read from the data, not from the text of the source: active = GI50 up to about 1.1 µM and inactive = higher. Square brackets hold non-standard residues; d marks the D form. Peptide text beside a SMILES is read from it. pGlu = O=C1CC[CH](C(=O)O)N1

With `COc1cc2cc(c1Cl)N(C)C(=O)C[C@H](OC(=O)[C@H](C)N(C)C(C)=O)[C@]1(C)O[C@H]1[C@H](C)[C@@H]1C[C@@](O)(NC(=O)O1)[C@H](OC)/C=C/C=C(/C)C2`, the GI50 in experiment [1] was 0.238 µM (active); in experiment [2] it was 0.0201 µM (active); in experiment [3], 0.0351 µM (active); in experiment [4] it was 0.0125 µM (active); in experiment [5], 0.0975 µM (active); in experiment [6], 0.0131 µM (active). For the same compound, the GI50 is 0.015 µM (active) in [7]; 0.0149 µM (active) in experiment [8]; 0.0531 µM (active) in experiment [9]; 0.0444 µM (active) in [10]; 0.0944 µM (active) in experiment [11]; 0.0526 µM (active) in experiment [12]. Also, the GI50 in experiment [13] was 0.0491 µM (active); in [14], 0.015 µM (active); in [15], 0.0149 µM (active); in [16] it was 0.0327 µM (active); in experiment [17], 0.0173 µM (active); in [18], 0.0435 µM (active).

As for `Brc1ccc(-c2ccc(-c3ccc(Br)s3)s2)s1`, the GI50 in experiment [1], in experiment [2], in experiment [4], in experiment [5], in experiment [6] and in experiment [7] was > 100 µM (inactive) throughout. Moreover, the GI50 in experiment [8], in experiment [19], in [10], in [11], in experiment [12] and in experiment [13] was > 100 µM (inactive) each time. Also, the GI50 in experiment [14], in experiment [15], in experiment [16] and in experiment [18] was > 100 µM (inactive) each time.

Turning to `CC(NC(=O)C(Cc1c[nH]cn1)NC(=O)C1CCC(=O)N1)C(N)=O` (stereo not drawn) ([pGlu]-His-Ala-NH2; configuration not given here), the GI50 is > 100 µM (inactive) in experiment [1]; > 100 µM (inactive) in experiment [2]; > 100 µM (inactive) in experiment [20]; > 100 µM (inactive) in experiment [3]; > 100 µM (inactive) in experiment [4]; > 10 µM (inactive) in [5]. Also, the GI50 in experiment [6], in [7], in [8], in experiment [19], in experiment [10] and in [11] was > 100 µM (inactive) in each case. Further, the GI50 in experiment [12], in experiment [15], in experiment [16] and in [18] was > 100 µM (inactive) throughout.

Regarding `O=C(CC(C(=O)c1cccs1)c1cccs1)c1ccsc1` (stereo unspecified), the GI50 in experiment [1] was > 100 µM (inactive); in [2], 35.6 µM (inactive); in experiment [20] it was 38 µM (inactive); in experiment [3], 40.8 µM (inactive); in [4], 29 µM (inactive); in experiment [5], 32.7 µM (inactive). Further, the GI50 in [6] was 19.4 µM (inactive); in [7] it was 41.6 µM (inactive); in experiment [8], 75.2 µM (inactive); in [9], > 100 µM (inactive); in experiment [19], 20.2 µM (inactive); in [10] it was 50.1 µM (inactive). For the same compound, the GI50 in experiment [11] is 43.5 µM (inactive); in experiment [12], 67 µM (inactive); in experiment [13], 35.7 µM (inactive); in experiment [14], 67 µM (inactive); in experiment [15], 34 µM (inactive); in experiment [16], 47.5 µM (inactive). Also, the GI50 in experiment [18] was > 100 µM (inactive).

Regarding `CO/C(N)=C(C#N)/N=C/c1cccnc1`, the GI50 in [1], in experiment [2], in [20], in [3], in [4] and in experiment [5] was > 100 µM (inactive) throughout. Moreover, the GI50 is > 100 µM (inactive) in experiment [6]; > 100 µM (inactive) in [7]; 71.9 µM (inactive) in [9]; > 100 µM (inactive) in experiment [19]; > 100 µM (inactive) in experiment [10]; > 100 µM (inactive) in experiment [13]. In addition, the GI50 in [14], in [15], in experiment [16] and in experiment [18] was > 100 µM (inactive) each time.

Consider `O=C(CCl)N1CCN(c2ccccc2)CC1`, for which the GI50 in experiment [1] is 20 µM (inactive); in experiment [2], 18.1 µM (inactive); in experiment [3] it was 23.6 µM (inactive); in experiment [4], 20 µM (inactive); in [5], 44.1 µM (inactive); in experiment [6] it was 22.6 µM (inactive). The GI50 in experiment [7] was 19.5 µM (inactive); in experiment [8] it was 37.7 µM (inactive); in [9], 15.8 µM (inactive); in experiment [10], 70.1 µM (inactive); in experiment [11] it was 17.9 µM (inactive); in experiment [12] it was 24.4 µM (inactive). Further, the GI50 in experiment [15] is 19.3 µM (inactive); in experiment [16] it was 18.3 µM (inactive).

Consider `O=C1c2ccccc2CC12Cc1cc3c(cc1C2=O)CCC3` (stereo unspecified), for which the GI50 in experiment [1], in experiment [2], in experiment [20], in experiment [3], in experiment [4] and in experiment [5] was > 100 µM (inactive) each time. The GI50 in experiment [6], in [7], in experiment [8], in experiment [9], in [19] and in experiment [10] was > 100 µM (inactive) in each case. The GI50 in experiment [11], in [12], in experiment [13], in [14], in experiment [16] and in experiment [17] was > 100 µM (inactive) throughout.

Take `CCC(Cc1cnc2nc(N)nc(N)c2n1)c1ccc(C(=O)NC(CCC(=O)O)C(=O)O)cc1` (stereo unspecified): the GI50 was > 100 µM (inactive) in [1]; 0.000621 µM (active) in [2]; 0.0127 µM (active) in experiment [3]; < 0.0001 µM (active) in [4]; 0.000711 µM (active) in experiment [5]; 0.000575 µM (active) in [6]. Besides, the GI50 in [8] is 0.00419 µM (active); in experiment [9], 0.01 µM (active); in [19], 0.000736 µM (active); in experiment [11] it was 0.000382 µM (active); in experiment [12] it was 0.000456 µM (active); in experiment [14], 0.01 µM (active). Further, the GI50 is 0.00069 µM (active) in experiment [15] and 0.01 µM (active) in experiment [17].

Regarding `Cc1[nH]c(/C=C2\C(=O)Nc3ccccc32)c(C)c1CCC(=O)O` [ORANTINIB], the GI50 in experiment [1] was 42.5 µM (inactive); in experiment [2], 27.7 µM (inactive); in experiment [20], 37.9 µM (inactive); in [3] it was 21.2 µM (inactive); in experiment [5], 37.3 µM (inactive); in [6] it was 27.2 µM (inactive). In addition, the GI50 was 59.4 µM (inactive) in [7]; 53.5 µM (inactive) in [8]; 22.1 µM (inactive) in [9]; 36.5 µM (inactive) in experiment [19]; 30.1 µM (inactive) in experiment [10]; 32.7 µM (inactive) in experiment [11]. For the same compound, the GI50 is 30.5 µM (inactive) in experiment [12]; 16.8 µM (inactive) in experiment [13]; 4.37 µM (inactive) in experiment [15]; 31.1 µM (inactive) in experiment [16]; 34.1 µM (inactive) in experiment [17].

As for `CCc1nc2cc(F)ccc2[nH]c1=O`, the GI50 in experiment [1], in experiment [2], in experiment [20], in [3], in [4] and in [5] was > 100 µM (inactive) throughout. The GI50 in [6], in experiment [7], in experiment [8], in experiment [9], in experiment [19] and in experiment [10] was > 100 µM (inactive) each time. Moreover, the GI50 in [11], in experiment [12], in experiment [13], in [14], in experiment [15] and in experiment [16] was > 100 µM (inactive) each time. The GI50 in [18] is > 100 µM (inactive).

`CN(C)CCN(C)c1ccc2c(=O)n(CCN(C)C)c(=O)n3c4ccccc4c(=O)c1c23`: the GI50 is 1.51 µM (inactive) in experiment [1]; 0.54 µM (active) in [2]; 1.23 µM (inactive) in experiment [3]; 0.0627 µM (active) in experiment [4]; 2.29 µM (inactive) in experiment [5]; 0.859 µM (active) in [6]. The GI50 in experiment [7] is 0.489 µM (active); in experiment [8], 0.518 µM (active); in [9], < 0.026 µM (active); in experiment [19] it was 1.26 µM (inactive); in experiment [10], 1.55 µM (inactive); in experiment [11], 0.516 µM (active). Further, the GI50 in experiment [12] was 0.0436 µM (active); in [13], 2.87 µM (inactive); in experiment [14], 0.324 µM (active); in experiment [15], 1.26 µM (inactive); in experiment [16], 2.12 µM (inactive); in experiment [17] it was 0.259 µM (active). Moreover, the GI50 in [18] is 0.29 µM (active).

(Values after ChEMBL document CHEMBL1201862, “PubChem BioAssay data set” (2004).)
